Data from publication PMC6114080 (International Journal for Parasitology: Drugs and Drug …, 2018).

Key:
Format in all cases: biochemical
CpGPI (MBP-CpGPI) [1] = target: T1, CpGPI (MBP-CpGPI) (Cryptosporidium parvum, UniProt Q5CTF8); test: G6PDH-coupled NADH assay at […] nm, mixed noncompetitive fit
T1 sequence (Q5CTF8 1-567): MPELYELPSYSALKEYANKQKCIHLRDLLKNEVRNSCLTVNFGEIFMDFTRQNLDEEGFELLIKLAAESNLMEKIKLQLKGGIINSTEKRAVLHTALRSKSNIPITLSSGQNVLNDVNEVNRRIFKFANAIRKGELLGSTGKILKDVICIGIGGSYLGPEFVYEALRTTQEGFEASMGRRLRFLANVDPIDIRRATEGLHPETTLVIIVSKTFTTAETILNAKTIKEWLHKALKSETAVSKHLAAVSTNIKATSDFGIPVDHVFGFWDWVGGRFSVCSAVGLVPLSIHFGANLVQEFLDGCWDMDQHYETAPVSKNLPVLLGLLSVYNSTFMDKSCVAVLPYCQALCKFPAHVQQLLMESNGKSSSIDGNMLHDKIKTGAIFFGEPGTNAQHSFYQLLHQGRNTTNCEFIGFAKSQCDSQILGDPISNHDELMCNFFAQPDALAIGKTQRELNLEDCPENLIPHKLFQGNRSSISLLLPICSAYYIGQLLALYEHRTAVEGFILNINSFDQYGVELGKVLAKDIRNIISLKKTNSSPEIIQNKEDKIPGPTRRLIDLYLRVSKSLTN

CpGPI (MBP-CpGPI) [2] = target: T1, CpGPI (MBP-CpGPI); test: G6PDH-coupled NADH assay at […] nm
HsGPI = HsGPI (Homo sapiens, UniProt P06744); test: G6PDH-coupled NADH assay at […] nm

SMILES | Ki (CpGPI (MBP-CpGPI) [1]) [µM] | IC50 (CpGPI (MBP-CpGPI) [2]) [µM] | IC50 (HsGPI) [µM]
O=c1c2ccccc2[se]n1-c1ccccc1 [ebselen, 2-phenyl-1,2-benzisoselenazol-3(2H)-one] | 36.3 | 8.33 | > 400
O=C[C@H](O)[C@H](O)COP(=O)(O)O [erythrose-4-phosphate] |  | 132 | 
